Patent US8530517B2, “Retinoid derivatives endowed with cytotoxic and/or antiangiogenic properties” (Sigma-Tau Industrie Farmaceutiche Riunite S.p.A., priority 2008, dated 2013)
Where a name gives a salt, the structure may show the parent alone. Read-outs that look alike come from different tables or passages of the source.

Experiments:
[1] = tested on: NCI-H460 non-small cell lung carcinoma cells; assay: Cytotoxicity on NCI-H460 tumor cell line (sulphorodamine B test); assay type: cell-based; settings: further 48 h in drug-free medium, read-out: NCI-H460 IC50 μM ± SD
Description: To evaluate the effect of the compounds on survival cells, the sulphorodamine B test was used. To test the effects of the compounds on cell growth, NCI-H460 non-small cell lung carcinoma cells were used. Tumor cells were grown in RPMI 1640 containing 10% fetal bovine serum (GIBCO).
Tumor cells were seeded in 96-well tissue culture plates at approximately 10% confluence and were allowed to attach and recover for at least 24 h. Varying concentrations of the drugs were then added to each well to calculate their IC50 value (the concentration which inhibits the 50% of cell survival). The plates were incubated at 37° C. for 24 h. At the end of the treatment, the plates were washed by remotion of the surnatant and addition of PBS. Medium culture (200 μL) was added again and the plates were incubated for further 48 h at 37° C. 200 μl PBS and 50 μl of cold 80% TCA were added. The plates were incubated on ice for at least 1 h. TCA was removed, the plates were washed 3 times for immersion in distilled-water and dried on paper and at 40° C. for 5 min. Then 200 μl of 0.4% sulphorodamine B in 1% acetic acid were added. The plates were incubated at room temperature for other 30 min. Sulphorodamine B was removed, the plates were washed for immersion in 1% acetic acid for 3 times, then they were dried on paper and at 40° C. for 5 min. Then 200 μl Tris 10 mM were added, the plates were kept under stirring for 20 min. The survival cell was determined as optical density by a Multiskan spectrofluorimeter at 540 nm. The amount of cells killed was calculated as the percentage decrease in sulphorodamine B binding compared with control cultures, the latter involving the use of (2E)-3-[3′-(1-adamantyl)-4′-hydroxy[1,1′-biphenyl]-4-yl]-2-propenoic acid (ST1926).
The IC50 values were calculated with the “ALLFIT” program.

[2] = tested on: human ovarian cancer cell line A2780; assay: Cytotoxicity on A2780 tumor cell line; assay type: cell-based; settings: 5 Mm as printed in head (text: 5 μM), preliminary results; for inhibition at 5 µM: Homo sapiens, A2780
Description: The antiproliferative effect of the compounds is reported as percentages of inhibition of cellular proliferation measured at 5 μM as reported in table 3.

A431 tumour cells = assay: In vivo study on A431 epidermoid carcinoma; settings: iv 10 mg/10 ml/kg, qdx3/wx2w, after two weeks of treatment, sc A431 in CD1 nude mice; p=0.036 versus vehicle
Description: The tumour was generated by subcutaneous injection of A431 tumour cells (5×10^6/100 μl/mouse), in 0.1 ml medium Tc199 in the right flank of CD1 nude mice. 3 days after tumour injection, ST5589 was delivered iv at a dose of 10 mg/10 ml/kg according to the schedule qdx3/wx2w in a group of 9 mice.
To evaluate the antitumour activity of ST5589, tumour diameters were measured biweekly with a Vernier caliper and tumour volume was calculated according to the formula TV=d^2×D/2
where d and D are the shortest and longest diameters, respectively.
The efficacy of the drug was assessed as the tumour volume inhibition according to the formula reported underneath: […]

[3] = Chemical stability in solution at various pH; assay type: physicochemical; settings: after 24 h at pH 7.4
Description: The compounds were screened at various pH in order to test their relative chemical stability in solution. All of them resulted stable after incubation for 3 h at pH=1.2. Chemical stability was also investigated at pH=7.4 after 24 h incubation.

[4] = Homo sapiens, NCI-H460, 24 h treatment

SMILES | IC50 [1, 4] [µM] | inhibition at 5 µM [2] [%] | further results
O=C(O)/C=C/c1ccc(-c2ccc(O)c(C34CC5CC(CC(C5)C3)C4)c2)cc1 [Control, (2E)-3-[3′-(1-adamantyl)-4′-hydroxy[1,1′-biphenyl]-4-yl]-2-propenoic acid, reference compound] | 0.13 |  | 
CC(C)[C@H](N)C(=O)Oc1ccc(-c2ccc(/C=C/C(=O)O)cc2)cc1C12CC3CC(CC(C3)C1)C2 [Example 1, (S)-2-amino-3-methyl-butyric acid 3-adamantan-1-yl-4′-((E)-2-carboxy-vinyl)-biphenyl-4-yl ester hydrochloride] | 0.51 ± 0.003 | 93 | 
O=C(O)/C=C/c1ccc(-c2ccc(OC(=O)COCCOCCOCC(=O)O)c(C34CC5CC(CC(C5)C3)C4)c2)cc1 [Example 2, (E)-3-(3′-adamantan-1-yl-4′-{2-[2-(2-carboxymethoxy-ethoxy)-ethoxy]-acetoxy}-biphenyl-4-yl)-acrylic acid] | 0.17 ± 0.007 | 93 | 
CCCCCCCCCCC(=O)Oc1ccc(-c2ccc(/C=C/C(=O)O)cc2)cc1C12CC3CC(CC(C3)C1)C2 [Example 3, undecanoic acid 3-adamantan-1-yl-4′-((E)-2-carboxy-vinyl)-biphenyl-4-yl ester] | 1.54 ± 0.08 | 94 | 
Cl.O=C(O)/C=C/c1ccc(-c2ccc(OC(=O)CCCN3CCOCC3)c(C34CC5CC(CC(C5)C3)C4)c2)cc1 [Example 4, 4-morpholin-4-yl-butyric acid 3-adamantan-1-yl-4′-((E)-2-carboxy-vinyl)-biphenyl-4-yl ester hydrochloride] | 0.22 ± 0.009 | 94 | reduction in tumour volume (tumour volume inhibition) (A431 tumour cells): 34%
CN1CCN(CCCC(=O)Oc2ccc(-c3ccc(/C=C/C(=O)O)cc3)cc2C23CC4CC(CC(C4)C2)C3)CC1 [Example 5, 4-(4-methyl-piperazin-1-yl)-butyric acid 3-adamantan-1-yl-4′-((E)-2-carboxy-vinyl)-biphenyl-4-yl ester dihydrochloride] | 0.24 ± 0.01 | 92 | 
CNCCNC(=O)Oc1ccc(-c2ccc(/C=C/C(=O)O)cc2)cc1C12CC3CC(CC(C3)C1)C2 [Example 6, (E)-3-[3′-adamantan-1-yl-4′-(2-methylamino-ethylcarbamoyloxy)-biphenyl-4-yl]-acrylic acid] | 0.24 ± 0.008 | 93 | 
O=C(O)/C=C/c1ccc(-c2ccc(OC(=O)NCC(=O)O)c(C34CC5CC(CC(C5)C3)C4)c2)cc1 [Example 7, (E)-3-(3′-adamantan-1-yl-4′-carboxymethylcarbamoyloxy-biphenyl-4-yl)-acrylic acid] | 3 ± 0.1 | 26 | 
NCCCCNC(=O)Oc1ccc(-c2ccc(/C=C/C(=O)O)cc2)cc1C12CC3CC(CC(C3)C1)C2 [Example 8, (E)-3-[3′-adamantan-1-yl-4′-(4-amino-butylcarbamoyloxy)-biphenyl-4-yl]-acrylic acid hydrochloride] | 2.6 ± 0.08 | 70 | 
O=C(O)/C=C/c1ccc(-c2ccc(OC(=O)NCCN3CCOCC3)c(C34CC5CC(CC(C5)C3)C4)c2)cc1 [Example 9, (E)-3-[3′-adamantan-1-yl-4′-(2-morpholin-4-yl-ethyl-carbamoyloxy)-biphenyl-4-yl]-acrylic acid hydrochloride] | 0.92 ± 0.05 | 90 | 
CCCCCCCCCCCNC(=O)Oc1ccc(-c2ccc(/C=C/C(=O)O)cc2)cc1C12CC3CC(CC(C3)C1)C2 [Example 10, (E)-3-(3′-adamantan-1-yl-4′-undecyl-carbamoyloxy-biphenyl-4-yl)-acrylic acid] |  |  | IC50 ([1]; 24 h treatment): 1.39 ± 0.04 µM; % Inhibition at 5 Mm on A2780 cell line [2]: 90%
O=C(O)/C=C/c1ccc(-c2ccc(OC(=O)N3CCC(N4CCCCC4)CC3)c(C34CC5CC(CC(C5)C3)C4)c2)cc1 [Example 11, [1,4′]bipiperidinyl-1′-carboxylic acid 3-adamantan-1-yl-4′-((E)-2-carboxy-vinyl)-biphenyl-4-yl ester hydrochloride] | > 20 |  | 
CC(C)NC(=O)Oc1ccc(-c2ccc(/C=C/C(=O)O)cc2)cc1C12CC3CC(CC(C3)C1)C2 [Example 12] |  |  | IC50 ([1]; 24 h treatment): 5 µM
O=C(O)/C=C/c1ccc(-c2ccc(OC(=O)NC3CCN(C(=O)OCc4ccccc4)CC3)c(C34CC5CC(CC(C5)C3)C4)c2)cc1 [Example 13, 4-[3-adamantan-1-yl-4′-((E)-2-carboxy-vinyl)-biphenyl-4-yloxycarbonylamino]-piperidine-1-carboxylic acid benzyl ester] | 5 | 71 | 
CC(C)C[C@H](NC(=O)Oc1ccc(-c2ccc(/C=C/C(=O)O)cc2)cc1C12CC3CC(CC(C3)C1)C2)C(=O)NCC(=O)O [Example 14, (E)-3-{3′-Adamantan-1-yl-4′-[(S)-1-(carboxymethyl-carbamoyl)-3-methyl-butylcarbamoyloxy]-biphenyl-4-yl}-acrylic acid] | 3.5 ± 0.2 |  | 
COCCOCOc1ccc(-c2ccc(/C=C/C(=O)O)cc2)cc1C12CC3CC(CC(C3)C1)C2 [Example 15, (E)-3-[3′-Adamantan-1-yl-4′-(2-methoxyethoxymethoxy)-biphenyl-4-yl]acrylic acid] | 4.2 ± 0.04 | 78 | 
O=C(O)/C=C/c1ccc(-c2ccc(OC(=O)C3CC3)c(C34CC5CC(CC(C5)C3)C4)c2)cc1 [Example 16, (E)-cyclopropanecarboxylic acid 3-adamantan-1-yl-4′-(2-carboxyvinyl)-biphenyl-4-yl ester] |  |  | IC50 ([1]; 24 h treatment): 0.85 ± 0.03 µM; % Inhibition at 5 Mm on A2780 cell line [2]: 93%
O=C(O)/C=C/c1ccc(-c2ccc(OCN3C(=O)c4ccccc4C3=O)c(C34CC5CC(CC(C5)C3)C4)c2)cc1 [Example 17, (E)-3-[3′-Adamantan-1-yl-4′-(1,3-dioxo-1,3-dihydroisoindol-2-ylmethoxy)-biphenyl-4yl]-acrylic acid] | 8.4 ± 1.6 |  | 
CCCCCC=CC/C=C/CCCCCCCC(=O)Oc1ccc(-c2ccc(C=CC(=O)O)cc2)cc1C12CC3CC(CC(C3)C1)C2 [Example 18, (E)-Octadeca-9,12-dienoic acid 3-adamantan-1-yl-4′-(2-carboxyvinyl)-biphenyl-4-yl ester] | 7.8 ± 0.7 | 55 | 
CCCOC(=O)OCOc1ccc(-c2ccc(/C=C/C(=O)O)cc2)cc1C12CC3CC(CC(C3)C1)C2 [Example 19] |  |  | IC50 ([1]; 24 h treatment): 0.32 ± 0.01 µM
NC1(C(=O)Oc2ccc(-c3ccc(/C=C/C(=O)O)cc3)cc2C23CC4CC(CC(C4)C2)C3)CC1.O=C(O)C(F)(F)F [Example 20, (E)-1-[3-Adamantan-1-yl-4′-(2-carboxyvinyl)-biphenyl-4-yloxycarbonyl]-cyclopropyl-ammonium trifluoroacetate] | 0.1 ± 0.003 | 94 | amount of E-4-(3-(1-adamantyl)-4-hydroxyphenyl)cinnamic acid (hydrolysed parent compound) [3]: 8%
N#CCOc1ccc(-c2ccc(/C=C/C(=O)O)cc2)cc1C12CC3CC(CC(C3)C1)C2 [Example 21, (E)-3-(3′-Adamantan-1-yl-4′-cyanomethoxybiphenyl-4-yl)-acrylic acid] | 0.85 ± 0.06 |  | 
O=C(O)/C=C/c1ccc(-c2ccc(OCCN3CCOCC3)c(C34CC5CC(CC(C5)C3)C4)c2)cc1 [Example 23, (E)-3-[3′-Adamantan-1-yl-4′-(2-morpholin-4-yl-ethoxy)biphenyl-4-yl]-acrylic acid] | > 5 |  | 
